{"source": "patent US20260216181A1", "about": "“COMPOSITIONS AND METHODS FOR TREATING CANCER” (Coiled Therapeutics, Inc., priority 2022, published 2026)", "key": {"[1]": {"test_system": "ovarian cancer xenografts", "settings": "Yao et al., 2014; cited from earlier work"}, "ovarian cancer cells": {"test_system": "ovarian cancer cells", "settings": "Yao et al., 2014; cited from earlier work"}, "SKOV-3 xenograft": {"test_system": "SKOV-3 xenograft", "assay": "SKOV-3 xenograft tumor growth", "format": "in vivo, athymic Balb/c nude mice", "settings": "20, 25 and 30 mpk BID", "procedure": "(§1) Compound 80 was tested in other xenograft models using the following cell lines: triple negative breast cancer cell line, MDA-MB-231, ovarian cancer cell line, SKOV-3 and endometrium cell line, HEC-59. For the SKOV-3 xenograft, 1.5×10^7 SKOV-3 cells in 200 μl of 1:1 DMEM:Matrigel (Thermo Fisher, NJ, USA) and for the MDA-MB-231 xenograft, 1.×10^7 MDA-MB-231 cells in 100 μl of 1:1 DMEM:Matrigel (Thermo Fisher, NJ, USA) for was injected in the right flank of six-to-eight-week-old female athymic Balb/c nude mice. When the tumor volume reached mean of ~200 mm^3 mice for SKOV-3 xenografts and between 150-175 mm^3 for MDA-MB-231 xenografts, mice were randomized in a group of 8, and treatment was initiated vehicle, 20 mpk BID, 25 mpk BID and 30 mpk BID of Compound 80. For the HEC-59 xenografts, 1.×10^7 HEC-59 cells in 100 μl of DMEM (Lonza, NJ, USA) was injected in the right flank of six-to-eight-week-old female athymic Balb/c nude mice. When the tumor volume reached mean of ~150 mm^3 mice were randomized in a group of 8 mice, and treatment was initiated vehicle, 20 mpk BID, 40 mpk QD and 30/40 mpk BID of Compound 80."}, "RKO xenograft": {"test_system": "RKO xenograft", "assay": "RKO colon cancer xenograft tumor growth", "format": "in vivo, athymic Balb/c nude mice", "procedure": "Six-to-eight-week-old female athymic Balb/c nude mice were housed with a temperature-controlled and 12-hour light/12-hour dark cycle environment. For in vivo colon cancer tumor growth, 5×10^6 RKO cells were prepared in 100 μl of DMEM and injected into right flank of female nude mice. Mouse weight and tumor volume were measured twice a week. Tumor volumes were calculated as length×width^2×0.5. Once the tumor volume had reached about 150-175 mm^3, xenografts were randomized into groups (8 mice per group). Animals were treated with vehicle, Compound 80 or oxaliplatin as mentioned in the table. The formulation for vehicle and Compound 80 was 50% PEG400 and 20% Cremophor RH40 final (50% of 40% Cremophor) in Acetate buffer, PH=4. Oxaliplatin was prepared in glucose solution. The mice were sacrificed after around 3 weeks or if the tumors reached a predefined tumor volume cut-off of 2500 mm^3."}, "MDA-MB-231 xenograft": {"test_system": "MDA-MB-231 xenograft", "assay": "MDA-MB-231 xenograft tumor growth", "format": "in vivo, athymic Balb/c nude mice", "settings": "20, 25 and 30 mpk BID", "procedure": "as §1"}, "HEC-59 xenograft": {"test_system": "HEC-59 xenograft", "assay": "HEC-59 xenograft tumor growth", "format": "in vivo, athymic Balb/c nude mice", "settings": "20 mpk BID, 40 mpk QD, 30/40 mpk BID", "procedure": "as §1"}, "[2]": {"settings": "Wurdak et al., 2010; cited from earlier work"}, "neuronal differentiation": {"test_system": "neuronal differentiation", "settings": "rats; Wurdak et al., 2010; cited from earlier work"}, "[3]": {"test_system": "glioblastoma (GBM) xenografts", "settings": "Polson et al., 2018; cited from earlier work"}}}
{"smiles": "CCN(Cc1ccncc1)Cc1c(O)ccc2c(-c3cc4ccccc4oc3=O)cc(=O)oc12", "note": "[SPL-B]", "values": [{"measurement": "tumor growth in ovarian cancer xenografts", "setting": "[1]", "result": "suppress tumor growth"}, {"measurement": "centrosome microtubule nucleation", "setting": "ovarian cancer cells", "result": "inhibit the centrosome microtubule nucleation"}]}
{"smiles": "C[C@@H]1CN(c2ncc(F)c(Nc3cc(-c4ccc(OC(F)F)cc4)cnn3)n2)C[C@H](C)O1", "note": "[Compound 80, 5-(4-(difluoromethoxy)phenyl)-N-(2-((2R,6S)-2,6-dimethylmorpholino)-5-fluoropyrimidin-4-yl)pyridazin-3-amine]", "values": [{"measurement": "tumor growth inhibition or regression", "setting": "SKOV-3 xenograft", "result": "Statistically significant tumor growth inhibition or regression"}, {"measurement": "tumor growth inhibition", "setting": "RKO xenograft; RKO xenograft, 20 and 30 mg/kg BID, 50 mg/kg QD, PO", "result": "strong tumor growth inhibition in a dose-dependent manner"}, {"measurement": "tumor growth inhibition compared to the standard of care (FIG. 1)", "setting": "RKO xenograft; xenograft model, vs standard of care", "result": "superior tumor growth inhibition"}, {"measurement": "tumor growth inhibition or regression", "setting": "MDA-MB-231 xenograft", "result": "Statistically significant tumor growth inhibition or regression"}, {"measurement": "tumor growth inhibition or regression", "setting": "HEC-59 xenograft", "result": "Statistically significant tumor growth inhibition or regression"}]}
{"smiles": "CC(C)CNc1ccnc(NCc2csc(-c3ccccc3)n2)n1", "note": "[KHS101]", "values": [{"measurement": "oral systemic stability", "setting": "[2]", "result": "low oral systemic stability"}, {"measurement": "neuronal differentiation", "setting": "neuronal differentiation", "result": "promote neuronal differentiation"}, {"measurement": "tumor growth of glioblastoma (GBM) xenografts", "setting": "[3]", "result": "suppressed"}]}
